Laboratory results taken from patent publication US6831083B2, “Pyrazoline derivative or tetrahydropyridazine derivative and medicinal use thereof” (Mitsui Chemicals, Inc., priority 2000, dated 2004).
Marks after values point to notes of the source that are not given here.

What was measured:
rat GLT-1 = target: T1, rat GLT-1 (Rattus norvegicus, UniProt P31596); test: Activating action for glia type glutamic acid transporter (GLT-1): [3H]-glutamate intake in COS-7 cells; assay type: cell-based; settings: test compound 100 μM, treated from 1 hour before [3H]-glutamate (2 μM), 3 min uptake; COS-7 cells expressing rat GLT-1; percentage relative to solvent-treated group
T1 construct: expressed in transfected cells; host or cells: COS-7 cells
T1 sequence (P31596 whole entry): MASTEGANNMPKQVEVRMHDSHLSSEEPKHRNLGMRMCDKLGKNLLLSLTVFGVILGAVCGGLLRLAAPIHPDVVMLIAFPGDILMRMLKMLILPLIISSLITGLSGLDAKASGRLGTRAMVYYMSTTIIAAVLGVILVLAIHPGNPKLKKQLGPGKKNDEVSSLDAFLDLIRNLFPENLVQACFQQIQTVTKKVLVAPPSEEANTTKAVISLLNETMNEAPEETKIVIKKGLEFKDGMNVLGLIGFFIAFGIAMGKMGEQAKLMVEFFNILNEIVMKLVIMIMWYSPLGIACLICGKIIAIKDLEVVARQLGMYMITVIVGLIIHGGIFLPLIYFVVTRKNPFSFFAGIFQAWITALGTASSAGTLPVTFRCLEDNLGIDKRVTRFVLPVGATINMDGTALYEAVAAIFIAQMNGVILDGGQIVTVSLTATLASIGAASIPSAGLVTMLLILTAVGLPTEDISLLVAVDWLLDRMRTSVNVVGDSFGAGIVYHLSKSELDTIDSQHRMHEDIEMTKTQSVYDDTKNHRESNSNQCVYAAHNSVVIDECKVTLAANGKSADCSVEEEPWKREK
Method: Test Example 1 Activating Action for Glia Type Glutamic Acid Transporter (GLT-1)
Activating action for GLT-1 was evaluated by a test using COS-7 cells into which rat GLT-1 had been introduced. To COS-7 cells capable of expressing GLT-1 was added a [^3H]-glutamate-containing KRH solution (200 μl, final concentration: 2 μM). 3 minutes later, the ^3H amount was measured using a scintillation counter. A test compound (100 μM) was dissolved in the KRH solution and a treatment was conducted from 1 hour before the addition of [^3H]-glutamate. The action of the test compound for intake of glutamic acid was expressed as a percentage relative to the glutamic acid intake ability of solvent-treated group.
Glutamic acid intake (%)=[test compound (dpm)/control (dpm)]×100
This test was conducted based on a method by Shimada et al. [Eur. J. Pharmacol., 386, 263-270 ([…])].

[1] = system: rat models of middle cerebral artery obstruction; test: Action for cerebral infarct caused by middle cerebral artery obstruction in rat; assay type: in vivo; settings: male SD rats, left MCA obstruction, brain taken 24 hours after obstruction, TTC
Method: Test Example 2 Action for Cerebral Infarct Caused by Middle Cerebral Artery Obstruction in Rat
Preparation of rat models having middle cerebral artery obstruction was conducted according to a method of Tamura et al. [J. Cerebral Blood Flow and Metabolism, 53-60 (1981)]. Specifically, 9 to 10 week-old male SD strain rats were used and their left middle cerebral arteries were obstructed under anesthesia by […] halosen. The compound of Example 5 or 26 was used as a test compound. The compound of Example 5 was intravenously administered in a dosage of 10 mg/kg for 24 hours from right after the obstruction; and the compound of Example 26 was intraperitoneally administered in a dosage of 50 mg/kg right after the obstruction and 6 hours after the obstruction. The brain of each rat was taken out 24 hours after the obstruction of rat middle cerebral artery, was divided into 6 parts, and was dyed with TTC. The section of each dyed part was photographed, and the focus of cerebral infarct was measured using an image analyzer. The rats in control group were as well subjected to middle cerebral artery obstruction.

ddy mice = test: Toxicity test in ddy mice; assay type: in vivo; settings: 100 mg/kg (i. p.), 24 hours after administration
Method: Test Example 3 Toxicity Test
A test compound was administered into ddy mice to investigate its toxicity. The test compound was intraperitoneally administered in a dosage of 100 mg/kg; the mortality rate of the mice 24 hours after the administration was examined; and the toxicity of the test compound was evaluated from the mortality rate.

Compound | Glutamic acid intake (%) (rat GLT-1) | melting point | also measured
O=C(c1cnccn1)N1CC2CS(=O)(=O)c3ccccc3C2=N1 (stereo not shown) [Example 42, 2-(2-pyrazinoyl)-3,3a-dihydro-2H,4H-[1]-benzothiopyrano-[4,3-c]pyrazole-S-dioxide] | 125% |  | 
COc1ccc(C2=NN(C(=O)c3cccnc3)CC2)cc1 [Example 13, 1-nicotinoyl-3-(4-methoxyphenyl)-2-pyrazoline] | 129% | 132 to 134 °C | 
O=C(c1cccnc1)N1CC2COc3ccccc3C2=N1 (stereo not shown) [Example 26, 2-nicotinoyl-3,3a-dihydro-2H,4H-[1]-benzopyrano[4,3-c]pyrazole] | 131% |  | Focus of cerebral infarct (mm^3) ([1]; 50 mg/kg intraperitoneally right after and 6 hours after obstruction, control group 188.0 ± 54.8): 135.9 ± 30.5* mm^3; Mortality rate (%) (ddy mice): 0%
O=C(c1cccnc1)N1CCC(c2ccc(Br)cc2)=N1 [Example 9, 1-nicotinoyl-3-(4-bromophenyl)-2-pyrazoline] | 138% |  | 
O=C(c1cccnc1)N1CCC(c2cccc(Cl)c2)=N1 [Example 11, 1-nicotinoyl-3-(3-chlorophenyl)-2-pyrazoline] | 140% | 124 to 126 °C | 
CCOc1ccc(C2=NN(C(=O)c3cccnc3)CC2)cc1 [Example 17, 1-nicotinoyl-3-(4-ethoxyphenyl)-2-pyrazoline] | 129% | 124 to 125 °C | 
Cc1ccc(C2=NN(C(=O)c3cccnc3)CC2)cc1 [Example 19, 1-nicotinoyl-3-(4-methylphenyl)-2-pyrazoline] | 131% | 100 to 102 °C | 
O=C(c1cccnc1)N1CCC(c2ccccc2F)=N1 [Example 8, 1-nicotinoyl-3-(2-fluorophenyl)-2-pyrazoline] | 134% |  | 
O=C(c1cccnc1)N1CCC(c2ccc(Cl)cc2)=N1 [Example 10, 1-nicotinoyl-3-(4-chlorophenyl)-2-pyrazoline] | 135% |  | 
COc1ccc(C2=NN(C(=O)c3cccnc3)CC2)c(OC)c1 [Example 16, 1-nicotinoyl-3-(2,4-dimethoxyphenyl)-2-pyrazoline] | 126% | 112 to 113 °C | 
Cc1cccc(C2=NN(C(=O)c3cccnc3)CC2)c1 [Example 20, 1-nicotinoyl-3-(3-methylphenyl)-2-pyrazoline] | 134% | 99 to 100 °C | 
O=C(c1cccnc1)N1CCCC(c2ccccc2)=N1 [Example 1, 1-nicotinoyl-3-phenyl-1,4,5,6-tetrahydropyridazine] | 136% |  | 
COc1ccccc1C1=NN(C(=O)c2cccnc2)CC1C (stereo not shown) [Example 15, 1-nicotinoyl-3-(2-methoxyphenyl)-4-methyl-2-pyrazoline] | 134% | 124 to 125 °C | 
O=C(c1cccnc1)N1CCC(c2ccccc2Cl)=N1 [Example 12, 1-nicotinoyl-3-(2-chlorophenyl)-2-pyrazoline] | 134% |  | 
O=C(c1cccnc1)N1CCC(c2ccc([N+](=O)[O-])cc2)=N1 [Example 24, 1-nicotinoyl-3-(4-nitrophenyl)-2-pyrazoline] | 130% | 175 to 177 °C | 
CS(=O)(=O)O.O=C(c1cccnc1)N1CCC(c2ccccc2)=N1 [Example 5, 1-nicotinoyl-3-phenyl-2-pyrazoline methanesulfonate] | 145% |  | Focus of cerebral infarct (mm^3) ([1]; 10 mg/kg intravenously for 24 hours from right after obstruction, control group 224.4 ± 71.5): 131.7 ± 51.6** mm^3; Mortality rate (%) (ddy mice): 0%
O=C(c1cnccn1)N1CCCC(c2ccccc2)=N1 [Example 2, 1-(2-Pyrazinoyl)-3-phenyl-1,4,5,6-tetrahydropyridazine] | 126% |  | 
O=C(c1cccnc1)N1CCC(c2ccccc2[N+](=O)[O-])=N1 [Example 25, 1-nicotinoyl-3-(2-nitrophenyl)-2-pyrazoline] |  | 123 to 125 °C | 
CCOc1ccccc1C1=NN(C(=O)c2cccnc2)CC1 [Example 18, 1-nicotinoyl-3-(2-ethoxyphenyl)-2-pyrazoline] |  | 155 to 157 °C | 
O=C(c1cccnc1)N1CCC(c2ccccc2C(F)(F)F)=N1 [Example 23, 1-nicotinoyl-3-(2-trifluoromethylphenyl)-2-pyrazoline] | 128% |  | 
O=C(c1cccnc1)N1CC2COc3cc(Cl)ccc3C2=N1 (stereo not shown) [Example 31, 2-nicotinoyl-7-chloro-3,3a-dihydro-2H,4H-[1]-benzopyrano[4,3-c]pyrazole] | 125% |  | 
Cc1ccc(C2=NN(C(=O)c3cccnc3)CC2)c(C)c1 [Example 22, 1-nicotinoyl-3-(2,4-dimethylphenyl)-2-pyrazoline] |  | 102 to 104 °C | 
COc1ccccc1C1=NN(C(=O)c2cccnc2)CC1 [Example 14, 1-nicotinoyl-3-(2-methoxyphenyl)-2-pyrazoline] | 124% | 130 to 132 °C | 
O=C(c1cnccn1)N1CC2CSc3ccccc3C2=N1 (stereo not shown) [Example 40, 2-(2-pyrazinoyl)-3,3a-dihydro-2H,4H-[1]-benzothiopyrano-[4,3-c]pyrazole] |  | 190 to 192 °C | 
O=C(c1cccnc1)N1CCC(c2ccc(F)cc2)=N1 [Example 7, 1-nicotinoyl-3-(4-fluorophenyl)-2-pyrazoline] | 143% | 128 to 130 °C | 
Cc1ccccc1C1=NN(C(=O)c2cccnc2)CC1 [Example 21, 1-nicotinoyl-3-(2-methylphenyl)-2-pyrazoline] | 129% |  | 
